{
  "source": "patent US20020111272A1",
  "about": "“Glyphosate-induced male sterility in dicots” (priority 2000, published 2002)",
  "key": {"[1]": {"test_system": "glyphosate-tolerant variety (RR1445) of Coker 312", "assay": "Glyphosate-induced male sterility in cotton, field plots scored for fertility (Example 1)", "assay_type": "in vivo", "from_the_text": "A test was designed to determine whether glyphosate-induced male sterility in cotton could be reliably maintained throughout the blooming period.\nThe plant material used was a glyphosate-tolerant variety (RR1445) of Coker 312 obtained from Monsanto Co. (St. Louis, Mo.). Seed was planted in 25 foot long, single row plots, with a 38 inch row spacing. The test was replicated four times with treatments applied as follows:\nTreatment 1: Single spray at 30 days post planting (“30 DPP”);\nTreatment 2: Multiple sprays beginning at 30 DPP and repeating every 10 days (“30 DPP+10 D”)\nTreatment 3: Multiple sprays beginning at 30 DPP and repeating every 20 days (“30 DPP+20 D”)\nTreatment 4: Unsprayed control.\nThe sprays consisted of a single 2% solution of Roundup® brand glyphosate (41% formulation), which was equivalent to 20 ml/l, or 22/3 oz/gal. This solution was used in all spray treatments, and was applied to runoff. […] At the onset of bloom (mid-July) and through mid September, each plot was scored for fertility approximately every 5 days as follows:\n0=Complete sterility; no pollen present upon rubbing anthers between fingers;\n1=Practically no pollen present upon rubbing anthers, no self pollination possible because anthers never shed pollen, male-sterile for all practical purposes;\n2=Very little pollen upon rubbing anthers, no natural pollen shed, no self pollination possible, male sterile for all practical purposes;\n3=Some pollen present when anthers rubbed, a minimal amount of natural pollen shed on lower anthers, a very small amount of self pollination possible with insect activity;\n4=Anthers shed pollen in sufficient amounts at all anther levels to self pollinate;\n5=Anthers shed pollen in normal amounts from all anthers."}, "Paymaster 145 RR": {"test_system": "Paymaster 145 RR", "assay": "Crossing block with hand pollination, boll and seed set (Example 2)", "assay_type": "in vivo, cotton", "conditions": "glyphosate applied as in Example 1 (about 64 oz/acre); end of season", "from_the_text": "A small isolated crossing block was planted with variety Paymaster 145 RR. Glyphosate was applied as indicated in the previous Example. The intention was to maintain male sterility and to cross pollinate (manually) with pollen from another Paymaster variety to produce actual F1 hybrid seed."}, "[2]": {"test_system": "PM 2200 RR and PM 2326 RR", "assay": "Spray rate test, fertility scores and seed set after hand pollination (Example 3)", "assay_type": "in vivo, cotton", "procedure": "A further test was conducted using the varieties PM 2200 RR and PM 2326 RR, in which 4 levels of glyphosate spray rates were applied at 14 day intervals, beginning at 31 days post planting. The rates used were: 0, 16, 24 and 32 ounces/acre of glyphosate. Fertility scores were taken at roughly 2 day intervals during the season to follow male sterility development. At the same time hand pollination was done on 10 flowers in each treatment (all 3 replicates), also at 2 day intervals for a total of “10 crossing days”. This was to determine the amount of seed set under the various spray regimes and thus infer the degree of female sterility, if any, being induced by the glyphosate applications."}, "DP 5414 RR": {"test_system": "DP 5414 RR", "assay": "Effect of glyphosate on soybean yield, male sterility assessed from yield (Example 4)", "assay_type": "in vivo", "from_the_text": "(§1) The glyphosate-tolerant soybean varieties DP 7220 RR, DP 6299 RR and DP 5414 RR were planted in replicated four row plots 18 feet in length, at planting and during growing season, end trimmed to 14.5 feet just prior to harvest to remove end effects in yield. Glyphosate (RoundUp® Ultra Max, Monsanto Co.) was applied starting 14 days post planting, with 5 applications at approximately 10 day intervals thereafter. The sprays consisted of a single 2% solution of the RoundUp® Ultra Max commercial glyphosate product, which is a 50% solution of glyphosate. This is equivalent to 16.25 ml/l or 2.17 oz/gal. This solution was used for all treatments, and was applied to runoff. Four rates of application were used: 0 ounces/acre (oz/acre) (control), 13.5 oz/acre (equivalent to the 16 oz/acre of the 41% formulation used in Examples 1-3), 26 oz/acre (equivalent to the 32 oz/acre used for Examples 1-3) and 52 oz/acre (equivalent to the 64 oz/acre used for Examples 1-3).\n(§2) The two middle rows of each plot were harvested for yield, calculated in bushels/acre (bu/acre) based on this land area. Statistical significance was determined using a standard single-tailed T-test. Male sterility was assessed based on the yield, because soybean is a […] flower (the flowers never open until after fertilization), and thus is almost completely self-pollinated. A statistically significant reduction in the yield would therefore correlate with a decreased rate of fertilization. Pollen production was not assessed in this experiment, but based on the observations made in cotton (Examples 1-3), it is reasonable to conclude that the decrease in fertilization rate in soybeans was due to a decrease in viable pollen production."}, "DP 6299 RR": {"test_system": "DP 6299 RR", "assay": "Effect of glyphosate on soybean yield, male sterility assessed from yield (Example 4)", "assay_type": "in vivo", "from_the_text": "as §1, §2"}, "DP 7220 RR": {"test_system": "DP 7220 RR", "assay": "Effect of glyphosate on soybean yield, male sterility assessed from yield (Example 4)", "assay_type": "in vivo", "from_the_text": "as §1, §2"}},
  "data": [
    {"smiles": "O=C(O)CNCP(=O)(O)O", "note": "[glyphosate]", "values": [
      {"measurement": "Fertility score", "setting": "[1]; 30 DPP (single spray at 30 days post planting), 2% Roundup about 64 oz/acre, 58 days post planting, score 0 complete sterility to 5 normal pollen, practical sterility 2.75 or below", "value": 1.00},
      {"measurement": "Fertility score", "setting": "[1]; 30 DPP + 10 D (sprays from 30 DPP every 10 days), 2% Roundup about 64 oz/acre, 58 days post planting", "value": 1.00},
      {"measurement": "Fertility score", "setting": "[1]; 30 DPP + 10 D, 62 days post planting", "value": 1.00},
      {"measurement": "Fertility score", "setting": "[1]; 30 DPP + 10 D, 66 days post planting", "value": 1.00},
      {"measurement": "Fertility score", "setting": "[1]; 30 DPP + 10 D, 70 days post planting", "value": 1.00},
      {"measurement": "Fertility score", "setting": "[1]; 30 DPP + 10 D, 75 days post planting", "value": 1.00},
      {"measurement": "Fertility score", "setting": "[1]; 30 DPP + 10 D, 80 days post planting", "value": 1.25},
      {"measurement": "Fertility score", "setting": "[1]; 30 DPP + 10 D, 85 days post planting", "value": 1.25},
      {"measurement": "Fertility score", "setting": "[1]; 30 DPP + 10 D, 90 days post planting", "value": 1.25},
      {"measurement": "Fertility score", "setting": "[1]; 30 DPP + 10 D, 104 days post planting", "value": 1.25},
      {"measurement": "Fertility score", "setting": "[1]; 30 DPP + 20 D (sprays from 30 DPP every 20 days), 2% Roundup about 64 oz/acre, 58 days post planting", "value": 1.00},
      {"measurement": "Fertility score", "setting": "[1]; 30 DPP + 20 D, 62 days post planting", "value": 1.75},
      {"measurement": "Fertility score", "setting": "[1]; 30 DPP + 20 D, 66 days post planting", "value": 2.5},
      {"measurement": "Fertility score", "setting": "[1]; 30 DPP + 20 D, 70 days post planting", "value": 2.75},
      {"measurement": "Fertility score", "setting": "[1]; 30 DPP + 20 D, 75 days post planting", "value": 2.5},
      {"measurement": "Fertility score", "setting": "[1]; 30 DPP + 20 D, 80 days post planting", "value": 1.75},
      {"measurement": "Fertility score", "setting": "[1]; 30 DPP + 20 D, 85 days post planting", "value": 1.75},
      {"measurement": "Fertility score", "setting": "[1]; 30 DPP + 20 D, 90 days post planting", "value": 1.50},
      {"measurement": "Fertility score", "setting": "[1]; 30 DPP + 20 D, 104 days post planting", "value": 1.50},
      {"measurement": "Fertility score", "setting": "[1]; 30 DPP single spray, 62 days post planting", "value": 3.00},
      {"measurement": "Fertility score", "setting": "[1]; 30 DPP single spray, 66 days post planting", "value": 3.75},
      {"measurement": "Fertility score", "setting": "[1]; 30 DPP single spray, 70 days post planting", "value": 4.00},
      {"measurement": "Fertility score", "setting": "[1]; 30 DPP single spray, 75 days post planting", "value": 4.25},
      {"measurement": "Fertility score", "setting": "[1]; 30 DPP single spray, 80 days post planting", "value": 4.50},
      {"measurement": "Fertility score", "setting": "[1]; 30 DPP single spray, 85 days post planting", "value": 5.00},
      {"measurement": "Fertility score", "setting": "[1]; 30 DPP single spray, 90 days post planting", "value": 5.00},
      {"measurement": "Fertility score", "setting": "[1]; 30 DPP single spray, 104 days post planting", "value": 5.00},
      {"measurement": "Adverse effects of the multiple sprays (other than male sterility)", "setting": "[1]; throughout the season, about 64 oz/acre", "value": "No adverse effects"},
      {"measurement": "Induction of male sterility", "setting": "[1]; treatment 2 (30 DPP+10 D), about 64 oz/acre", "value": "adequate to induce sterility"},
      {"measurement": "Induction of male sterility", "setting": "[1]; treatment 3 (30 DPP+20 D), about 64 oz/acre", "value": "adequate to induce sterility"},
      {"measurement": "Boll set of hand pollinated flowers (female sterility)", "setting": "Paymaster 145 RR", "value": "practically all hand pollinated flowers had not set viable bolls"},
      {"measurement": "Female sterility", "setting": "[2]; 24 oz/acre rate at roughly 10 day intervals (best effect)", "value": "minimal or no female sterility"},
      {"measurement": "Male sterility", "setting": "[2]; all rates used: 16, 24 and 32 ounces/acre, 14 day intervals from 31 days post planting", "value": "produced male sterility"},
      {"measurement": "Boll and hybrid seed set after hand pollination", "setting": "[2]; all the spray rates tested (16, 24, 32 oz/acre)", "value": "Full, mature bolls bearing hybrid seed were produced"},
      {"measurement": "Level of male sterility induced", "setting": "[2]; both varieties PM 2200 RR and PM 2326 RR, small varietal difference", "value": "adequate for hybrid production"},
      {"measurement": "Male sterility (assessed from yield)", "setting": "DP 5414 RR; 13.5 to 52 oz/acre", "value": "complete male-sterility was not achieved"},
      {"measurement": "Average Difference from Control", "setting": "DP 5414 RR; application rate 13.5 oz./acre", "value": 2.05, "unit": "oz./acre"},
      {"measurement": "Yield", "setting": "DP 5414 RR; application rate 13.5 oz./acre", "value": 32.53, "unit": "bu/acre"},
      {"measurement": "Average Difference from Control", "setting": "DP 5414 RR; application rate 26 oz./acre", "value": 8.30, "unit": "oz./acre"},
      {"measurement": "Yield", "setting": "DP 5414 RR; application rate 26 oz./acre", "value": 26.28, "unit": "bu/acre"},
      {"measurement": "Average Difference from Control", "setting": "DP 5414 RR; application rate 52 oz./acre", "value": 8.65, "unit": "oz./acre"},
      {"measurement": "Yield", "setting": "DP 5414 RR; application rate 52 oz./acre", "value": 25.93, "unit": "bu/acre"},
      {"measurement": "Male sterility (assessed from yield)", "setting": "DP 6299 RR; 13.5 to 52 oz/acre", "value": "complete male-sterility was not achieved"},
      {"measurement": "Average Difference from Control", "setting": "DP 6299 RR; application rate 13.5 oz./acre", "value": 1.23, "unit": "oz./acre"},
      {"measurement": "Yield", "setting": "DP 6299 RR; application rate 13.5 oz./acre", "value": 36.45, "unit": "bu/acre"},
      {"measurement": "Average Difference from Control", "setting": "DP 6299 RR; application rate 26 oz./acre", "value": 9.65, "unit": "oz./acre"},
      {"measurement": "Yield", "setting": "DP 6299 RR; application rate 26 oz./acre", "value": 28.03, "unit": "bu/acre"},
      {"measurement": "Average Difference from Control", "setting": "DP 6299 RR; application rate 52 oz./acre", "value": 10.18, "unit": "oz./acre"},
      {"measurement": "Yield", "setting": "DP 6299 RR; application rate 52 oz./acre", "value": 27.50, "unit": "bu/acre"},
      {"measurement": "Male sterility (assessed from yield)", "setting": "DP 7220 RR; 13.5 to 52 oz/acre", "value": "complete male-sterility was not achieved"},
      {"measurement": "Average Difference from Control", "setting": "DP 7220 RR; application rate 13.5 oz./acre", "value": 4.05, "unit": "oz./acre"},
      {"measurement": "Yield", "setting": "DP 7220 RR; application rate 13.5 oz./acre", "value": 35.95, "unit": "bu/acre"},
      {"measurement": "Average Difference from Control", "setting": "DP 7220 RR; application rate 26 oz./acre", "value": 8.27, "unit": "oz./acre"},
      {"measurement": "Yield", "setting": "DP 7220 RR; application rate 26 oz./acre", "value": 31.73, "unit": "bu/acre"},
      {"measurement": "Average Difference from Control", "setting": "DP 7220 RR; application rate 52 oz./acre", "value": 11.55, "unit": "oz./acre"},
      {"measurement": "Yield", "setting": "DP 7220 RR; application rate 52 oz./acre", "value": 28.45, "unit": "bu/acre"}
    ]}
  ]
}
